Results: patent publication US20040234586A1, “Compositions and methods for enhancing nucleic acid transfer into cells” (priority 2001, published 2004)

Test system: Rat1 fibroblast cells
Experiment: Transfection efficiency with pCMV-LacZ DNA, β-galactosidase activity of cell lysate (ONPG assay)
Assay type: cell-based, rat
Conditions: for transfection efficiency alone or in combination with PEI, compared with PEI alone / transfection efficiency when combined to PEI as compared to PEI alone: PEI N/P=10; for transfection efficiency alone or in combination with PEI, compared with PEI alone: lipid 2 mg/ml; for transfection efficiency when combined to PEI as compared to PEI alone: 0.25 to 7.5 μl lipid per ug DNA
Experimental: Transfection complexes were prepared as described by Boussif et al. (Boussif et al., 1995).
Lipid was diluted in 100 μl of growth media without serum and antibiotics. The solutions were immediately homogenized and left at room temperature for 5-10 min. […] The combined material was vortexed and incubated at room temperature for 20 min before addition to the cells.
Rat1 fibroblast cells were maintained in modified Eagle medium (MEM) (Life Technologies) and VSMC cells were maintained in Dulbecco's modified Eagle medium (DMEM) (Life Technologies). Both cell lines were cultured in media containing 10% heat inactivated calf serum (Life Technologies), 1% penicillin-streptomycin, and L-glutamine in 10 cm tissue culture flasks at 37° C. in a humidified 5% CO2 atmosphere. Cells were grown to 80% confluency, detached with trypsin-EDTA and replated in 2 new flasks 18-24 h before transfection. Two to three hours before transfections, cells were again detached, and seeded at a density of 5×10^4 cells per well in 24-multiwell tissue culture plates.
At the time of transfection, cells were supplemented with 200-400 μl of fresh complete media containing 10% calf serum and antibiotics unless otherwise specified. Transfection solution was added to each well and the plates were incubated at 37° C. in a humidified atmosphere containing 5% CO2. After 6 h of transfection, the transfecting solution was removed, cells were washed once with appropriate cell culture medium and then covered with 1 ml of the same medium. Cells were maintained for an additional 36-48 h.
Following transfections with pCMV-LacZ DNA (36-48 h later), cells were washed twice with ice-cold 0.1 M phosphate buffered saline (PBS) and lysed with 250 μl lysis buffer (10 mM Tris-HCl pH 7.5, 1 mM EDTA, 100 mM NaCl, 5 mM MgCl2 and 1% Nonidet P40™ (Boehringer Mannheim)). Lysates were centrifuged 15 000×g at 4° C. for 5 min. The supernatant was collected and its protein concentration was determined using the BCA protein assay kit (PIERCE) using the microwell protocol according to the manufacturer's specifications. β-galactosidase assay was performed as described by Eustice et al. (Eustice et al., 1991) Briefly, β-galactosidase activity was measured in 240 μl assay mixture containing 80 mM sodium phosphate buffer, pH 7.3, 102 mM 2-mercaptoethanol, 9.0 mM MgCl2 and 8.0 mM ONPG (o-nitrophenyl-β-D-galactopyranoside, SIGMA). Samples, (1-40 μl) of each lysate were assayed in the reaction mixture at 37° C. for 30 min in 96-well plates. Absorbance was measured at 405 nm. E. coli β-galactosidase (Roche) was used to generate a standard curve.

CCCCCCCC/C=C\CCCCCCCC(=O)OCC(CN(C)C)OC(=O)CCCCCCC/C=C\CCCCCCCC (stereo not drawn) [1,2-dioleoyl-3-dimethylammonium-propane]
transfection efficiency alone or in combination with PEI, compared with PEI alone (1 μg DNA): did not display, alone or in combination with PEI, transfection efficiencies that were better or even equal to that obtained with PEI alone

CCCCCCCC/C=C\CCCCCCCC(=O)OCC(C[N+](C)(C)C)OC(=O)CCCCCCC/C=C\CCCCCCCC (stereo not drawn) [1,2-dioleoyl-3-trimethylammonium-propane]
transfection efficiency alone or in combination with PEI, compared with PEI alone (1 μg DNA): did not display, alone or in combination with PEI, transfection efficiencies that were better or even equal to that obtained with PEI alone

CCCCCCCC/C=C\CCCCCCCC(=O)OC[C@@H](COP(=O)(OCC)OCC[N+](C)(C)C)OC(=O)CCCCCCC/C=C\CCCCCCCC (stereo partly drawn) [1,2-dioleoyl-sn-glycero-3-ethylphosphocholine]
transfection efficiency alone or in combination with PEI, compared with PEI alone (1 μg DNA): did not display, alone or in combination with PEI, transfection efficiencies that were better or even equal to that obtained with PEI alone

CCCCCCCC/C=C\CCCCCCCC(=O)OC[C@H](COP(=O)([O-])OCC[N+](C)(C)C)OC(=O)CCCCCCC/C=C\CCCCCCCC [DOPC, 1,2-Dioleoly-sn-Glycero-3-Phosphocholine]
transfection efficiency when combined to PEI as compared to PEI alone (1 μg DNA): enhance transfection efficiency

CCCCCCCC/C=C\CCCCCCCC(=O)OC[C@H](COP(=O)(O)OCCN)OC(=O)CCCCCCC/C=C\CCCCCCCC [DOPE, 1,2-Dioleoyl-sn-Glycero-3-Phosphoethanolamine]
β-galactosidase activity when combined to DNA alone (0.25 to 7.5 μl per ug DNA, without PEI): no β-galactosidase activity | transfection efficiency when combined to PEI as compared to PEI alone (1 μg DNA): enhance transfection efficiency | increase of transfection efficiency over PEI alone (combined with PEI (N/P=10), 1 μg DNA): ≤ 26 fold

CC(C)CCCC(C)CCCC(C)CCCC(C)CC(=O)OC[C@H](COP(=O)(O)OCCN)OC(=O)CC(C)CCCC(C)CCCC(C)CCCC(C)C (stereo partly drawn) [DPPE, 1,2-Diphytanoyl-sn-Glycero-3-Phosphoethanolamine]
transfection efficiency when combined to PEI as compared to PEI alone (1 μg DNA): enhance transfection efficiency

L-α-phosphatidylcholine
transfection efficiency alone or in combination with PEI, compared with PEI alone (1 μg DNA): did not display, alone or in combination with PEI, transfection efficiencies that were better or even equal to that obtained with PEI alone
